Source: patent US6194441A, “Oxazolidinone derivatives and their use as antibacterial agents” (Zeneca Ltd., priority 1997, dated 2001)
In brackets after ≈: the same amount, converted by molar mass. Counter-ions that a name gives are not always drawn.

Experiments:
[1] = tested on: Staphylococcus aureus Oxford; test: MIC by agar-dilution technique, S. aureus Oxford; assay type: cell-based; conditions: IsoSensitest agar, inoculum 10^4 CFU/spot, 37° C., 24 hours, Oxford strain
Description: (§1) The following results were obtained on a standard in vitro test system. The activity is described in terms of the minimum inhibitory concentration (MIC) determined by the agar-dilution technique with an inoculum size of 10^4 CFU/spot.
(§2) The organisms were tested on a standard semi-defined susceptability test medium (IsoSensitest agar), using an inoculum of 10^4 CFU/spot and an incubation temperature of 37° C. for 24 hours. Typically, compounds are active in the range 0.01 to 128 μg/ml.

[2] = tested on: Coagulase Negative Staphylococci MS; test: MIC by agar-dilution technique, coagulase negative staphylococci MS; assay type: cell-based; conditions: IsoSensitest agar, inoculum 10^4 CFU/spot, 37° C., 24 hours, methicillin sensitive
Description: as §1, §2

[3] = tested on: Streptococcus pyogenes C203; test: MIC by agar-dilution technique, S. pyogenes C203; assay type: cell-based; conditions: IsoSensitest agar, inoculum 10^4 CFU/spot, 37° C., 24 hours
Description: as §1, §2

[4] = tested on: Enterococcus faecalis; test: MIC by agar-dilution technique, E. faecalis; assay type: cell-based; conditions: IsoSensitest agar, inoculum 10^4 CFU/spot, 37° C., 24 hours
Description: as §1, §2

[5] = tested on: Bacillus subtilis; test: MIC by agar-dilution technique, B. subtilis; assay type: cell-based; conditions: IsoSensitest agar, inoculum 10^4 CFU/spot, 37° C., 24 hours
Description: as §1, §2

[6] = tested on: Staphylococcus aureus MRQR; test: MIC by agar-dilution technique, S. aureus MRQR; assay type: cell-based; conditions: IsoSensitest agar, inoculum 10^4 CFU/spot, 37° C., 24 hours, methicillin resistant quinolone resistant
Description: as §1, §2

[7] = tested on: Staphylococcus aureus Novb. Res.; test: MIC by agar-dilution technique, S. aureus novobiocin resistant; assay type: cell-based; conditions: 24 h
Description: as §1, §2

[8] = tested on: Coagulase Negative Staphylococci MR; test: MIC by agar-dilution technique, coagulase negative staphylococci MR; assay type: cell-based; conditions: IsoSensitest agar, inoculum 10^4 CFU/spot, 37° C., 24 hours, methicillin resistant
Description: as §1, §2

[9] = Solubility in water; assay type: physicochemical; conditions: dihydrochloride salt

Compound	MIC [1] [µg/mL]	MIC [2] [µg/mL]	MIC [3] [µg/mL]	MIC [4] [µg/mL]	MIC [5] [µg/mL]	MIC [6] [µg/mL]	MIC [7] [µg/mL]	MIC [8] [µg/mL]	solubility [9] [µg/mL]
CC(=O)NC[C@H]1CN(c2ccc(-n3cnc(C=CC#N)c3)c(F)c2)C(=O)O1 [Example 2]	0.125 (≈ 0.338 µM)	0.06 (≈ 0.162 µM)	0.125 (≈ 0.338 µM)	0.25 (≈ 0.677 µM)	0.25 (≈ 0.677 µM)	1 (≈ 2.71 µM)	0.25 (≈ 0.677 µM)	0.25 (≈ 0.677 µM)	–
CC(=O)NC[C@H]1CN(c2ccc(-n3cnc(/C=C/c4ccccn4)c3)c(F)c2)C(=O)O1 [Example 11 dihydrochloride salt, N-[(5S)-3-(3-Fluoro-4-(4-(E-2-(Pyrid-2-yl)ethenyl)imidazol-1-yl)phenyl)-2-oxooxazolidin-5-ylmethyl]acetamide]	–	–	–	–	–	–	–	–	~10000
